According to patent publication US20220146526A1, “METHOD FOR EVALUATING SAMPLE, ANALYSIS METHOD, METHOD FOR DETECTING DEGRADED SAMPLE, MARKER FOR DETECTING DEGRADED BLOOD PLASMA SAMPLE, AND MARKER FOR DETECTING DEGRADED SERUM SAMPLE” (SHIMADZU CORPORATION, priority 2019, published 2022):
“Also recorded” adds a separate entry of the source.

What was measured:
Format in all cases: physicochemical, human
[1] = GC/MS of blood plasma sample: time from blood collection to cooling of blood (Table B); design: key to Rate of increase or decrease / Rate of increase or decrease (first value, increase): detection intensity relative to 1 at cooling time ≤1 min; settings: for Rate of increase or decrease: detection intensity relative to 1 at 1 minute or less, blood collection to cooling 5 minutes; for Increase or decrease: detection intensity, blood collection to cooling 5 minutes or more vs 1 minute or less
Experimental: (§1) At room temperature, 5 mL of blood from a healthy subject was taken into a blood-collecting vessel containing EDTA, and the blood-collecting vessel was inverted for mixing, then cooled, and allowed to stand at 4° C. Here, in order to investigate how the detection intensity of molecules contained in the sample was affected in a case where the time to cooling was set to 5 minutes or more as compared to that in a case where the time to cooling was set to 1 minute or less, preparations were performed under both the former condition and the latter condition. After standing, the blood sample was subjected to centrifugation under a condition of 4° C., 3000 rpm, and 15 minutes. […] After centrifugation, the blood-collecting vessel was left to stand at room temperature for 30 minutes, and the blood plasma was isolated during this 30 minutes. The obtained blood plasma sample was frozen and stored. Here, in order to investigate how the detection intensity of molecules contained in the sample was affected in cases where freezing and thawing was performed 4 times, 6 times, and 10 times after freezing as compared to that in a case where freezing and thawing was performed 2 times after freezing, freezing and thawing was performed under the respective conditions of 2, 4, 6, and 10 times.
(§2) Frozen blood plasma samples and serum samples were subjected to GC/MS or LC/MS. In GC/MS, the blood plasma samples and serum samples were subjected to methoxymation and trimethylsilylation and then introduced to GC-MS.
(§3) GC/MS was conducted using GCMS·TQ8040 (Shimadzu Corporation) that was a GC·MS equipped with AOC·20i (Shimadzu Corporation) as an autosampler.
(§4) Column: BPX5 (inner diameter of 0.25 mm, length of 30 m, and film thickness of 0.25 μm) (SGE)
(§5) Column temperature: maintained at 60° C. for 2 minutes, then raised at 15° C./min, and maintained at 330° C. for 3 minutes.
(§6) Inlet temperature: 250° C.
(§7) Carrier gas control mode: constant linear velocity of 39.0 cm/sec
(§8) Sample introduction method: split (split ratio of 30:1) Injection volume: 1 μL
(§9) Ionization method: electron ionization
(§10) Ionization current: 60 μA
(§11) Interface temperature: 280° C.
(§12) Ion source temperature: 200° C.
(§13) Mode: multiple reaction monitoring (MRM)
Table B presents compounds of which the detection intensity increased or decreased by 30% or more in a case where the time from blood collection to cooling of blood, when a blood plasma sample was analyzed by GC/MS, was set to 5 minutes or more as compared to that in a case where the time was set to 1 minute or less. The rate of increase or decrease in Table B is the value of detection intensity relative to 1 that is the detection intensity in a case where the time from blood collection to cooling is set to 1 minute or less.

[2] = GC/MS of serum sample: number of times of freezing and thawing (Table I); design: key to Rate of increase or decrease / Rate of increase or decrease (first value, increase): detection intensity relative to 2 freeze-thaw cycles = 1; settings: serum, GC/MS; for Rate of increase or decrease: detection intensity relative to 1 at 2 times, freezing and thawing 4 times; for Increase or decrease: detection intensity, freezing and thawing 4 times vs 2 times
Method in brief: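 Detection intensities are ratios to the value after two freeze–thaw cycles, which is set as 1, compared against 4, 6 and 10 cycles. Analysis used methoxymation and trimethylsilylation derivatization, then GC/MS with EI ionization and multiple reaction monitoring on a BPX5 column. Serum came from blood held at room temperature and spun at 3500 rpm for 5 min.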

[3] = GC/MS of blood plasma sample: time from blood collection to centrifugation (Table A); settings: for Increase or decrease: detection intensity, blood collection to centrifugation, after 4 hours vs 15 minutes; for Rate of increase or decrease (second value, decrease) / Rate of increase or decrease (first value, increase): different from individual to individual, relative to 1 at 15 minutes, collection to centrifugation, after 4 hours; for Rate of increase or decrease (second value, decrease): individuals with decrease; for Rate of increase or decrease (first value, increase): individuals with increase
Experimental: as §1, §2, §3, §4, §5, §6, §7, §8, §9, §10, §11, §12, §13
The rate of increase or decrease in Table A is the value of detection intensity relative to 1 that is the detection intensity in a case where the time from blood collection to centrifugation is set to 15 minutes.

[4] = GC/MS of blood plasma sample: number of times of freezing and thawing (Table C); settings: for Rate of increase or decrease: detection intensity relative to 1 at 2 times; for Increase or decrease: detection intensity
Experimental: as §1, §2, §3, §4, §5, §6, §7, §8, §9, §10, §11, §12, §13
The rate of increase or decrease in Table C is the value of detection intensity relative to 1 that is the detection intensity in a case where the number of times of freezing and thawing is set to 2 times.

[5] = GC/MS of serum sample: time from blood collection to centrifugation (Table G); settings: blood collection to centrifugation; for Rate of increase or decrease: detection intensity relative to 1 at 15 minutes; for Increase or decrease: detection intensity
Method in brief: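 Values express detection intensity as a ratio to the sample centrifuged 15 minutes after blood collection (taken as 1). Serum was derivatized by methoxymation and trimethylsilylation, then analysed by electron-ionization GC/MS using multiple reaction monitoring on a BPX5 column ramped from 60 to 330° C.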

[6] = GC/MS of serum sample: time from centrifugation to isolation (Table H); design: key to Rate of increase or decrease / Rate of increase or decrease (first value, increase): detection intensity relative to 1 at 30 min centrifugation-to-isolation; settings: for Rate of increase or decrease: detection intensity relative to 1 at 30 minutes; for Increase or decrease: detection intensity
Method in brief: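 Values are GC/MS (EI, MRM) detection intensities of methoxymated/trimethylsilylated serum, normalised to 1 for the 30-min sample. Serum was isolated 30 min, 1 h or 6 h after room-temperature centrifugation (3500 rpm, 5 min) of blood.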

Compound	Rate of increase or decrease [1]	Increase or decrease [1]	Rate of increase or decrease [2]	Increase or decrease [2]	Increase or decrease [3]	Rate of increase or decrease (second value, decrease) [3]	Rate of increase or decrease (first value, increase) [3]	Rate of increase or decrease ([5]; after 4 hours)	Increase or decrease ([5]; after 4 hours vs 15 minutes)	also measured
O=CC(=O)O [Glyoxylic acid]	1.37	Increase	0.63	Decrease	–	–	–	–	–	–
CCC(=O)C(=O)O [2-Ketobutyric acid]	0.67	Decrease	–	–	Different from individual	0.64	1.48	–	–	–
O=C(O)C(O)Cc1ccccc1 (stereo not shown) [3-Phenyllactic acid]	–	Different from individual	0.68	Decrease	–	–	–	–	–	Rate of increase or decrease (second value, decrease) ([1]; different from individual to individual, individuals with decrease, relative to 1 at 1 minute or less, collection to cooling 5 minutes): 0.60; Rate of increase or decrease (first value, increase) ([1]; different from individual to individual, individuals with increase, relative to 1 at 1 minute or less, collection to cooling 5 minutes): 1.47; Rate of increase or decrease ([4]; freezing and thawing 10 times): 0.62; Increase or decrease ([4]; freezing and thawing 10 times vs 2 times): Decrease
O=C1CCNC(=O)N1 [Dihydrouracil]	1.42	Increase	–	Increase; also recorded: Decrease	–	–	–	3.17	Increase	Rate of increase or decrease ([5]; after 12 hours): 1.30; Increase or decrease ([5]; after 12 hours vs 15 minutes): Decrease; Rate of increase or decrease ([6]; after 1 hour): 0.30; Increase or decrease ([6]; after 1 hour vs 30 minutes): Decrease
O=C(O)C(=O)O [Oxalic acid]	1.58	Increase	0.61	Decrease	Different from individual	0.32	3.80	1.31	Increase	Rate of increase or decrease ([6]; after 6 hours): 1.67; Increase or decrease ([6]; after 6 hours vs 30 minutes): Increase
CC(C)CC(O)C(=O)O (stereo not shown) [2-Hydroxyisocaproic acid]	1.31	Increase	–	–	–	–	–	–	–	Rate of increase or decrease ([4]; freezing and thawing 6 times): 0.66; Increase or decrease ([4]; freezing and thawing 6 times vs 2 times): Decrease
